Assay results as given in US20060030620A1, “Method for treating and/or preventing ischemia/reperfusion injury” (priority 2004, published 2006).

How the values were obtained:
Type in all cases: in vivo, Spargue-Dawley rats
[1] = test system: liver ischemia/reperfusion injury; assay: Plasma AST/ALT during hepatic ischemia/reperfusion
Experimental: (§1) The liver was then examined by the following assays.
(§2) The collected blood samples were centrifuged at 4000 g×5 min to separate the plasma, and the levels of aspartate transaminase (AST), alanine transaminase (ALT), and alkaline phosphatase (ALP) in the bile juice were measured with an auto-analyzer (model H-747E, Hitachi Co., Tokyo). Lipid peroxide was followed as Masugi and Nagamura stated by thiobarbituric acid method using malondialdehyde (MDA) tetraethyl acetal as the standard and expressed results of MDA equivalents.
(§3) Each data was expressed as mean±SD.

[2] = test system: liver ischemia/reperfusion injury; assay: Bile juice ALP during hepatic ischemia/reperfusion; conditions: after 120 minutes of reperfusion, MA 100 mg/kg
Experimental: as §1, §2, §3

[3] = test system: liver ischemia/reperfusion injury; assay: Bile flow during hepatic ischemia/reperfusion
Excerpt: as §1, §3

[4] = test system: liver ischemia/reperfusion injury; assay: Histological investigation of the liver after hepatic I/R (H&E); conditions: 70 minutes of ischemia and 120 minutes of reperfusion; MA-treated ischemia group
Experimental: as §1
(§4) Protein contents of the collected tissues were assayed with Lowry using bovine serum albumin as the standard. The collected tissue was fixed in saline buffered with 10% formaldehyde solution, embedded in paraffin wax, sliced into 5 μm thickness of each, stained with H&E staining method, and examined with a light microscope by a pathologist independently.
Histological changes in liver after hepatic I/R were kept with the above biochemical experiments of plasma and bile juice analysis. The placebo group was shown on A (100×) and B (400×); wherein “1” is severe endothelial damage, “2” is bile duct dilation, “3,” is parenchyma edema with RBC congestion, “4,” is Cholestasis, and “5” is hepatocyte necrosis. […] The dilated bile duct might be attributed to ischemic process when the clamp was used to stop the blood flow and simultaneously obstruct the bile flow. Parenchyma edema and RBC congestion might develop from the inflammatory process during I/R process.

[5] = test system: liver ischemia/reperfusion injury; assay: Lipid peroxidation assay (liver MDA, thiobarbituric acid method); design: post-ischemic MDA levels in liver: unit not given here
Experimental: as §1, §2, §4, §3

[6] = MA 100 mg/kg iv 10 min prior to reperfusion, 70 min ischemia, after 120-minute reperfusion, mean±SD
[7] = after 60 minutes of reperfusion, P<0.05
[8] = after 120 minutes of reperfusion, MA 100 mg/kg iv

## Magnesium ascorbate
[1]; 1 to 4 hours after reperfusion, MA 100 mg/kg, P<0.05
  increase in AST and ALT activity versus vehicle-treated ischemia rats: significantly suppressed
[1]; [6]
  average plasma AST level: 2040±882 U/l
  plasma ALT level: 4466±1745 U/l
[1]; after 30 minutes of reperfusion, P<0.05
  plasma AST levels compared with the placebo group: significantly decreased
[1]; [7]
  plasma AST levels compared with the placebo group: significantly decreased
[1]; [8]
  decrease of the elevated serum ALT level: 69%
  decrease of the elevated serum AST level: 78%
[2]
  relief of the ALP in bile juice from I/R damage: about 70%
[2]; mean±SD
  bile ALP: 34.5±8.3 U/l
[3]; P=0.21
  bile flow compared with the control group (sham): significantly restored resemble to normal values
[3]; [7]
  choleretic effect compared with the placebo group: significantly increased
[3]; after 120 minutes of reperfusion injury
  secreted bile juice versus vehicle-treated ischemia group: significantly doubled
[3]; after 120 minutes of reperfusion, MA 100 mg/kg iv, mean±SD
  bile flow: 1.353 ± 0.351 mL/h/kg
[3]; from 60 minutes to 240 minutes of reperfusion, P<0.05
  bile flow compared with the vehicle-treated ischemia group: significantly restored
[4]
  histological findings of the liver (H&E): minor lesions were observed, damaged to the vascular endothelium and cholestasis was also mild
[5]; 70 min ischemia and 120 min reperfusion, MA 100 mg/kg 10 min prior to reperfusion, mean±SD, P<0.02
  post-ischemic MDA levels in liver: 1054±414
[5]; MA 100 mg/kg infusion 10 minutes prior to reperfusion, after 120 minutes of reperfusion
  MDA concentration in liver tissue versus vehicle-treated ischemia group: significantly decreased
